Earlier results as cited in patent US6399797B1, “Vitamin D analogues” (Leo Pharmaceutical Products Ltd. A/S (Løvens kemiske Fabrik …, priority 1997, dated 2002).

Key:
[1] = system: transplanted islets in diabetic NOD mice; conditions: alone or in combination with cyclosporin A
[2] = system: experimental animal models; conditions: systemically administered
[3] = system: cardiac and small bowel grafts; conditions: rats

| SMILES | prevention of autoimmune destruction of transplanted islets [1] | immunosuppressive activities in vivo [2] | survival of cardiac and small bowel grafts [3] |
| --- | --- | --- | --- |
| C=C1/C(=C\C=C2/CCC[C@]3(C)[C@@H]([C@@H](C)OCCCC(O)(CC)CC)CC[C@@H]23)C[C@@H](O)C[C@@H]1O [KH 1060] | prevent autoimmune destruction of transplanted islets | have shown immunosuppressive activities in vivo |  |
| C=C1/C(=C\C=C2/CCC[C@]3(C)[C@@H]([C@H](C)CCCC(C)(C)O)CC[C@@H]23)C[C@@H](O)C[C@@H]1O [MC 1288] |  | have shown immunosuppressive activities in vivo | able to prolong survival of cardiac and small bowel grafts |
